# Results from US8329617B2, “Compositions and methods for synergistic manipulation of plant and insect defenses” (Plant Bioscience Limited, priority 2007, dated 2012).
# Columns and labels:
# Myzus persicae, US1L = test: Glasshouse simulator trial: M. persicae protein on pepper plants treated with cis-jasmone and PBO; type: in vivo; details: for μg (Av) Total Protein (M. persicae): simulator, 25 pepper plants per treatment, three adult apterous aphids per plant, 7 days
# Description: (§1) In all bioassay experiments the control plants were sprayed with deionised water. Initially seven treatments were used (Table 1) to test all chemical variables. All treatments were applied hydraulically with a spray simulator after which the plants were separated according to treatment (with cis-jasmone controls being separated) and left for 2 hours prior to insect application.
# (§2) Analysis of protein in each treatment was conducted using Bradford Reagent: the data were analysed using the computer programme ‘GraFit’ (Erithacus software, Berkeley). To calculate the calibration curve a single logarithmic curve was used with regression analysis taking the values of the treatment wells (averages of the three readings taken: technical replicates).
# To investigate developmental/fecundity effects of cis-jasmone+/−PBO (see Table 1) on Myzus persicae when applied to sweet peppers, adults were added to the plants and then using Bradford reagent, the amount of aphid protein present on the plants 7 days after treatment was measured. Esterase levels were also tested after the same interval to check for the possible induction of metabolic enzymes when using cis-jasmone. Aphids were brushed from all plants and each leaf checked individually to ensure none remained. The aphid mass for each treatment was weighed before total protein was assessed (total from all […] plants in the treatment).
# Myzus persicae were applied to sweet peppers at the rate of three adults per plant. Aphids were brushed from all plants and each leaf checked individually to ensure none remained. The aphid mass for each treatment was assessed for total protein (total from all 25 plants in the treatment) using Bradford reagent. The amount of aphid protein present on the plants 7 days after treatment was measured. Plants were put into glasshouse simulators (one/treatment) and kept at 28° C., 12 L: […] and 80% R.H.
# B. tabaci = B. tabaci pupae protein on cotton plants treated with PBO and/or microencapsulated cis-jasmone; type: in vivo, Bemisia tabaci; details: for Protein WF (Av): five cotton plants per treatment, 5 adult female whiteflies per plant, ~16 days
# Description: (§3) A new method for the investigation of the development of whitefly to the pupal stage on tomatoes and cotton was used. […] These were checked for protein after ˜16 days using Bradford reagent.
# (§4) Adults were added to the plant 2 h after treatment, and removed after 24 h. The eggs laid were then left for 16-18 days until they reached the pupal stage. The total pupal protein on the plant was tested using the Bradford reagent.
# Bemisia tabaci, GUA MIX = test: Bioassay: B. tabaci pupae protein on one tomato plant treated with cis-jasmone and PBO; type: in vivo; details: for μg (Av) Total Protein (B. tabaci pupae): one tomato plant, ten adult whiteflies, ~16 days
# Description: as §1, §2, §3, §4
smiles,measurement,setting,value
"CCCCOCCOCCOCc1cc2c(cc1CCC)OCO2 [PBO, 2-(2-butoxyethoxy)ethyl 6-propylpiperonyl ether]",optimal concentration of PBO for esterase inhibition,esterase,1000 ppm
same,effect of addition of PBO to cis jasmone on efficacy (in words),"Myzus persicae, US1L; M. persicae on pepper, simulator trial",does not significantly increase efficacy
same,Av. Total Insect Protein μg,"Myzus persicae, US1L; Simulator, M. persicae (US1L) on Pepper (BellBoy), average of weeks 1 to 3",14.406 µg
same,μg (Av) Total Protein (M. persicae),"Myzus persicae, US1L; week 1",14.72 µg
same,μg (Av) Total Protein (M. persicae),"Myzus persicae, US1L; week 2",14.2 µg
same,μg (Av) Total Protein (M. persicae),"Myzus persicae, US1L; week 3",14.3 µg
same,effect of addition of PBO to microencapsulated cis-jasmone (in words),B. tabaci; B. tabaci on cotton,potentiates the effect of this new microencapsulated cis-jasmone
same,Protein WF (Av),B. tabaci; week 1,0.167 µg
same,Protein WF (Av),B. tabaci; week 2,0.16 µg
same,Protein WF (Av),B. tabaci; week 3,0.17 µg
same,effect of adding PBO to the cis-jasmone treatment (in words),"Bemisia tabaci, GUA MIX; B. tabaci on tomato, bioassay",clear and highly significant (p<0.001) synergistic effect
same,Av. Total Insect Protein μg,"Bemisia tabaci, GUA MIX; Bioassay, Bemisia tabaci (GUA MIX), average of weeks 1 to 3",0.419 µg
same,μg (Av) Total Protein (B. tabaci pupae),"Bemisia tabaci, GUA MIX; week 1",0.28 µg
same,μg (Av) Total Protein (B. tabaci pupae),"Bemisia tabaci, GUA MIX; week 2",0.28 µg
same,μg (Av) Total Protein (B. tabaci pupae),"Bemisia tabaci, GUA MIX; week 3",0.3 µg
